# Measured values from US20220087987A1, “A METHOD FOR TREATING SWI/SNF COMPLEX-DEFICIENT CANCERS COMPRISING GLUTATHIONE (GSH) METABOLIC PATHWAY INHIBITOR” (National Cancer Center, priority 2018, published 2022).
# How the values were obtained:
# Assay type in all cases: cell-based, human
# [1] = tested on: bile duct cancer cell lines; test: Cell viability of bile duct cancer cell lines; conditions: treatment for 6 days
# Method: (§1) Cell viability was examined by measuring the cellular ATP level using the CellTiter-Glo Luminescent Cell Viability Assay (Promega). To measure cell viability after siRNA-mediated knockdown, cell lines were transfected with siRNAs (25 nM) using Lipofectamine RNAiMAX. After 48 hrs, cells were trypsinized and repeatedly transfected with siRNAs (25 nM) using Lipofectamine RNAiMAX. Cells were trypsinized after a further 48 hrs, counted, and reseeded at the specified density in 96-well plates. To measure cell viability after drug treatment, cells were trypsinized, counted, reseeded at the specified density in 96-well plates, and exposed to the indicated concentrations of drugs. Cell viability was measured using the CellTiter-Glo Luminescent Cell Viability Assay. Luminescence was measured using an Envision Multi-label plate reader (PerkinElmer).
# [2] = tested on: uterine cancer cell lines; test: Cell viability of uterine cancer cell lines; conditions: treatment for 6 days
# Method: as §1
# [3] = tested on: ROS; test: Detection of ROS in cells (ROS-Glo)
# Method: GSH, ROS and apoptosis were detected using the GSH/GSSG-Glo Assay (Promega) and/or the GSH-Glo Assay (Promega), the ROS-Glo Assay (Promega), and the Caspase-Glo 3/7 Assay, respectively. To measure levels of GSH, ROS and apoptosis after drug treatment, cells were trypsinized, counted, reseeded at the specified density in 96-well plates and exposed to the indicated concentrations of drugs. After 16-48 hrs, luminescence was measured using an Envision Multi-label plate reader (PerkinElmer). To measure levels of GSH and ROS after siRNA-mediated knockdown, cell lines were transfected with siRNAs (25 nM) using Lipofectamine RNAiMAX. After 48 hrs, cells were trypsinized and transfected repeatedly with siRNAs (25 nM) using Lipofectamine RNAiMAX. Cells were trypsinized after a further 48 hrs, counted, and reseeded at the specified density in 96-well plates. After 72-120 hrs, luminescence was measured using an Envision Multi-label plate reader (PerkinElmer). Cell viability was also measured using the CellTiter-Glo Luminescent Cell Viability Assay (Promega). Caspase-3/7, GSH, and ROS levels were normalized against cell viability. The GSH/GSSG ratio was calculated as the GSH-GSSG signal divided by the GSSG/2 signal. Relative signal ratios in treated samples were normalized against untreated samples.
# [4] = tested on: ARID1A-proficient and ARID1A-deficient cancer cell lines; test: Cell viability and colony formation in cancer cell line panel; conditions: four ARID1A-proficient and six ARID1A-deficient cell lines; cell viability, colony formation
# [5] = tested on: GSH; test: Detection of GSH in cells (GSH/GSSG-Glo, GSH-Glo)
# [6] = tested on: ARID1A-WT and ARID1A-KO HCT116 cells; test: Cell viability and colony formation assays; conditions: cell viability 5 days, colony formation 10 days
# Method: as §1
# The effect of drug treatment on cancer cell survival was evaluated in a colony formation assay. Cells were trypsinized, counted, reseeded at the specified density in 12-well plates, exposed to the indicated concentrations of drugs for 10-14 days, and fixed for 10 min in 50% (v/v) methanol containing 0.01% (w/v) crystal violet. Images were taken on LAS-3000 Imaging System (Fujifilm) and colonies were counted using Multi Gauge software.
# [7] = tested on: NOXA; test: Quantitation of NOXA mRNA (quantitative RT-PCR); conditions: ARID1A-KO cells and ARID1A-deficient cancer cells, 24 hrs
# Method: mRNA was extracted and cDNA was synthesized using the SuperPrep (Registered Trademark) Cell Lysis & RT Kit for qPCR (TOYOBO). Aliquots of cDNA were subjected to quantitative PCR using the SuperPrep/THUNDERBIRD Probe qPCR Set (TOYOBO) and TaqMan Gene Expression Assays (Life Technologies). The following gene-specific primer/probe sets were used: NOXA (PMAIP1) (Hs00560402 ml), NRF2 (NFE2L2) (Hs00975961 g_1), GCLC (Hs00155249 ml), GSS (Hs00609286_m1), and SLC7A11 (Hs00921938_m1). PCR was performed in an ABI StepOnePlus Real-Time PCR System (Life Technologies) under the following conditions: denaturation at 95° C. for 15 s, followed by annealing and extension at 60° C. for 30 s (40 cycles). For each sample, the mRNA levels of target genes were normalized against levels of GAPDH mRNA. The target/GAPDH ratios were then normalized against those in control samples using the 2-ΔΔCt method.
# [8] = ARID1A-deficient versus ARID1A-proficient ovarian and other cancer cells
smiles,measurement,setting,value
COCC1(CO)C(=O)C2CCN1CC2 (stereo not drawn) [APR-246],IC50 values in ARID1A-deficient versus ARID1A-proficient bile duct cancer cell lines,[1],markedly lower in two ARID1A-deficient cell lines than in two ARID1A-proficient cell lines
same,IC50 values in ARID1A-deficient versus ARID1A-proficient uterine cancer cell lines,[2],markedly lower in three ARID1A-deficient cell lines than in two ARID1A-proficient cell lines
same,ROS level in SWI/SNF complexes-deficient cancer cells,"[3]; 40 μM APR-246, 24 hrs",increased in the ROS level
same,ROS levels in gastric cancer PDCs,"[3]; 40 or 50 μM APR-246, 48 hrs",increased more markedly in ARID1A-deficient than in ARID1A-proficient PDCs
same,intracellular ROS level (H2O2),"[3]; ARID1A-KO versus ARID1A-WT HCT116 cells, 48 hrs",increased more in ARID1A-KO cells than in ARID1A-WT cells
same,levels of ROS and apoptosis in ovarian PDCs,"[3]; ARID1A-deficient PDCs, 40-50 μM, 24-48 hrs",increased the levels of ROS and apoptosis
same,ROS level in cancer cell lines,[3]; [8],increased ROS level
same,sensitivity of ARID1A-deficient versus ARID1A-proficient cancer cells,[4],more sensitive to APR-246 than ARID1A-proficient cancer cells
same,GSH level (GSH/GSSG) in SWI/SNF complexes-deficient cancer cells,"[5]; 40 μM APR-246, 24 hrs",decreased in the GSH level
same,GSH levels (GSH/GSSG) in gastric cancer PDCs,"[5]; 40 or 50 μM APR-246, 1.25 μM erastin, 24 hrs",markedly decreased GSH levels in ARID1A-deficient PDCs and not in ARID1A-proficient PDCs
same,GSH level (ratio of reduced GSH to GSSG),"[5]; ARID1A-KO HCT116 cells, but not ARID1A-WT cells, 24 hrs",dose-dependently decreased the GSH level
same,GSH levels in ovarian PDCs,"[5]; ARID1A-deficient PDCs, 50 μM, 24 hrs",decreased the GSH levels
same,GSH level in cancer cell lines,[5]; [8],decreased GSH level
same,growth / survival of ARID1A-KO versus ARID1A-WT cells,[6],"markedly decreased the survival of ARID1A-KO cells, but not ARID1A-WT cells"
same,mRNA expression of NOXA,[7],increased
